From the NIST ThermoML archive (doi:10.1021/acs.jced.9b00436)
“And” between values parts separate entries of the source, which are not always exact repeats. Equal values may be shown once.

Key:
[1] = an = ratio of the nth substance listed; details: 100 kPa, Liquid; for viscosity: Falling or rolling sphere viscometry; for speed of sound: Frequency=5 MHz, Single path-length method; for mass density: Vibrating tube method
[2] = 100 kPa, Liquid, Frequency=5 MHz, Single path-length method
[3] = xn = mol fraction of the nth substance listed; details: 308 K; 100 kPa; Liquid; Frequency=5 MHz; Single path-length method; x2 = 0.333

C[N+](C)(C)CCO.[Cl-] [choline chloride] + OCC(O)CO
[1], a2 = 2
Details	mass density [kg/m3]	speed of sound [m/s]	viscosity [mPa·s]
293 K	1194.3	1987	473
298 K	1191.7	1975	364.4
303 K	1188.5	1963	246.8
308 K	1185.5	1952	193.8
313 K	1182.7	1941	133.4
318 K	1179.3	1932	110.4
323 K	1177	1923	81.6
328 K	1173.1	1910	70.2
333 K	1171.3	1900	53.8

C[N+](C)(C)CCO.[Cl-] [choline chloride] + OCCO
[1], a2 = 2
Details	mass density [kg/m3]	speed of sound [m/s]	viscosity [mPa·s]
293 K	1117.1	1896	50
298 K	1114.5	1882	40.4
303 K	1111.4	1871	33.6
308 K	1108.6	1860	27.9
313 K	1105.7	1848	23.6
318 K	1102.6	1837	19.9
323 K	1100.1	1826	17.2
328 K	1096.7	1813	14.6
333 K	1094.7	1802	12.8

CCCCCCCCCC(=O)O [decanoic acid] + CCCCCCCCCCCCCC[P+](CCCCCC)(CCCCCC)CCCCCC.[Cl-]
[1], a1 = 2
Details	mass density [kg/m3]	speed of sound [m/s]	viscosity [mPa·s]
293 K	898.5	1437	346.3
298 K	895.4	1418	260.5
303 K	893.2	1402	197.8
308 K	888.6	1384	151.6
313 K	885.4	1366	117.9
318 K	881.9	1349	93.7
323 K	879.1	1333	76
328 K	877.1	1314	62.8
333 K	874.9	1303	52.8

CCCCCCCCCCCCCCCC [hexadecane]
[2]
Details	speed of sound [m/s]
293 K	1356
298 K	1340
303 K	1325
313 K	1287
318 K	1268
323 K	1248
328 K	1227
333 K	1210

NC(N)=O [urea] + C[N+](C)(C)CCO.[Cl-]
[1], a1 = 2
Details	mass density [kg/m3]	speed of sound	viscosity [mPa·s]
293 K	1200.1	2045 m/s	1372
298 K	1198.1	2035 m/s	985.1
303 K	1194.5	2027 m/s	527.3
308 K	1191.7	2020 m/s and 2018 m/s	397.2
313 K	1188.7	2009 m/s	238.1
318 K	1185.5	2002 m/s	181.6
323 K	1183.1	1992 m/s	119.8
328 K	1179.2	1983 m/s	98.2
333 K	1177.3	1976 m/s	68.6

Details	speed of sound [m/s]
[3]	2016

CCCCCCCC[N+](CCCCCCCC)(CCCCCCCC)CCCCCCCC.[Br-] [tetraoctylammonium bromide] + CCCCCCCCCC(=O)O
[1], a2 = 2
Details	mass density [kg/m3]	speed of sound [m/s]	viscosity [mPa·s]
293 K	933.7	1416	908.9
298 K	930.6	1402	648
303 K	928.4	1382	472
308 K	923.7	1365	350
313 K	920.5	1347	264.3
318 K	916.9	1331	201.1
323 K	913.9	1317	156.9
328 K	911.8	1301	123.4
333 K	909.5	1287	98.4

CCCCCCCC[N+](C)(CCCCCCCC)CCCCCCCC.[Br-] [methyltrioctylammonium bromide] + CCCCCCCCCC(=O)O
[1], a2 = 2
Details	mass density [kg/m3]	speed of sound [m/s]	viscosity [mPa·s]
293 K	945.4	1406	806
298 K	942.2	1393	572.6
303 K	939.9	1375	411.4
308 K	935.2	1357	305.2
313 K	931.9	1341	226.2
318 K	928.3	1326	171.5
323 K	925.3	1312	132.4
328 K	923.1	1297	104.5
333 K	920.8	1283	83.7

O=C(O)CC(=O)O [propanedioic acid] + C[N+](C)(C)CCO.[Cl-]
[1]
Details	mass density, a1 = 1 [kg/m3]	speed of sound, a1 = 2 [m/s]	viscosity, a1 = 2 [mPa·s]
293 K	1185.1	–	–
298 K	1182.1	–	–
303 K	1178.6	1876	1128.6
308 K	1175.6	1863	812.9
313 K	1172.3	1851	597.3
318 K	1169.1	1838	446.1
323 K	1166	1825	342.3
328 K	1162.7	1812	–
333 K	1160.3	1799	–

O [water]
[2]
Details	speed of sound [m/s]
298 K	1501
303 K	1511.5
313 K	1527.5
318 K	1535
323 K	1542
328 K	1547
333 K	1550
